From ChEMBL document CHEMBL3507680, “University of Dundee, Gates Library screen for HepG2 cell viability”

Experiment: Human HepG2 cell viability assay in 384 well format
Assay type: toxicity, cell-based
Design: dose 125 nL, time 70.5 hour; cytotoxicity at 70.5 h: concentration not given beside the values
Details: HepG2 cells, read-out: Inhibition

Row | SMILES | cytotoxicity at 70.5 h
1 | COc1cc(C2CC(=O)Nc3c2c(=O)[nH]n3C2CCCC2)ccc1O (stereo not drawn) | -2.72%
2 | CCn1ccnc1S(=O)(=O)Cc1ccc(C(N)=O)cc1 | -2.48%
3 | CCCN1CCC(Cc2noc(-c3[nH]cnc3C)n2)CC1 | 6.08%
4 | O=c1c2cccnc2ccn1Cc1nccn1C1CC1 | -10.2%
5 | COc1cccc(N2CCN(C(=O)C(C)Oc3ccccc3)CC2=O)c1 (stereo not drawn) | 20.9%
6 | OCC1CN(Cc2nc(C(F)(F)F)cs2)c2ccccc2O1 (stereo not drawn) | -9.55%
7 | COc1cccc(CNC2CCSC2)c1OC (stereo not drawn) | -7.09%
8 | CCC(=O)Nc1cccc(OCC(=O)N(C)Cc2cc(COC)[nH]n2)c1 | -4.96%
9 | Cc1noc(C)c1CN1CCC[C@]2(C[C@@H](Oc3ccccn3)CO2)C1 | -0.591%
10 | Cc1nc(C2CCCN(C(=O)c3cc4c(s3)CCCC4)C2)no1 (stereo not drawn) | 5.35%
11 | O=C(C1CC2(CCNCC2)CN1)N1CCN(c2ccccc2)CC1 (stereo not drawn) | 14.5%
12 | Cc1nn(C)c(C)c1C1CCCN1CC(=O)NCc1ccccn1 (stereo not drawn) | -5.71%
13 | CC(C)c1nc(CSc2nnc(C3CC3)n2CC(N)=O)no1 | -7.31%
14 | c1ccc(OCCNC2CCCN(Cc3noc(C4CC4)n3)C2)cc1 (stereo not drawn) | -7.17%
15 | Cc1nc(NCCSc2cnn[nH]2)c2c(C)noc2n1 | 7.78%
16 | COc1ccc(NC2CCCN(Cc3cnc(N(C)C)s3)C2)cc1 (stereo not drawn) | -6.11%
17 | COc1ncc(CN2CCC3(CCCN(CC4CCCCC4)C3)C2)cn1 (stereo not drawn) | 26.8%
18 | CC(O)CN(C(=O)NC1CCN(CC2CCCCC2)CC1)C(C)C (stereo not drawn) | 1.48%
19 | CCC(CC)CN(C)Cc1nc(-c2ccccc2NS(C)(=O)=O)oc1C | -5.33%
20 | O=C(CN1CCC2(CC1)NC(=O)c1cc(Br)ccc1N2)NC1CC1 | -1.52%
21 | c1cncc(CN2CCCC(Nc3ncnc4c3CCNCC4)C2)c1 (stereo not drawn) | -11.7%
22 | O=C(c1ccccc1F)N1C[C@@H]2COC[C@]2(COCc2cccnc2)C1 | -1.45%
23 | O=C(O)c1ccc2ccc(N3CCN(CC4CC4)CC3)n2c1 | -9.01%

Row | SMILES | cytotoxicity at 70.5 h
24 | COCCOc1ccc(Cl)c(C(=O)N2CCN(CCO)CC2)n1 | -2.95%
25 | COc1ccc(C(=O)N2CCC3(CC2)c2ccccc2[C@@H](N)[C@@H]3O)cc1 | 0.101%
26 | CCS(=O)(=O)N1CCCn2nnc(CNC(C)=O)c2C1 | 7.38%
27 | O=C(c1ccnnc1)N1C[C@@H](OCc2cccnc2)[C@H]2OCCC[C@H]21 | 27.3%
28 | Cc1ccc(CNC(=O)C2CCN(C(=O)C(C)C)CC2)n1C | -9.28%
29 | CC(C)C(=O)N1CCCC(Cc2ncccn2)C1 (stereo not drawn) | -1.65%
30 | CC(C)(C)n1ncc2c1CCCC2NCc1ccc2c(c1)CCO2 (stereo not drawn) | 9.44%
31 | Cc1ccc(NC2CCN(C(=O)COc3ccccc3)CC2)nn1 | -15.7%
32 | CCCC(=O)NC1CCCN(Cc2cccs2)C1 (stereo not drawn) | -18.1%
33 | Cc1nc(C)n(CC2CCCN(Cc3nnc(-c4ccco4)o3)C2)n1 (stereo not drawn) | -2.38%
34 | Cc1cc(C)cc(S(=O)(=O)NCC2CNCCOC2)c1 (stereo not drawn) | -1.55%
35 | O=C(NCc1cnc2n1CCN(CC1CCOCC1)C2)c1ccno1 | 31.3%
36 | CCN1CCC(c2nc3ccc(NC4CCC4)cn3n2)CC1 | -4.48%
37 | CCNC(=O)NCc1ccc(CN2CCCC(C)C2)cc1 (stereo not drawn) | -0.573%
38 | O=S(=O)(N1CCOCC1)N1CCCCC1CCc1ccc(O)cc1 (stereo not drawn) | -1.47%
39 | Cc1ccc(C)c(CN2C[C@H]3CC[C@@H]2CN(C(=O)c2cccnc2)C3)c1 | 1.01%
40 | CN1C(=O)CC2(CCNCC2)c2ccccc21 | 6.26%
41 | O=S(=O)(c1ccc(Cl)cc1)N1CCN(CCCn2ccnc2)CC1 | -1.12%
42 | Cn1cc(C(=O)OCC(N)=O)c(-c2ccc(F)cc2F)n1 | -7.24%
43 | Cc1cc(C(=O)NC2CCc3c(ccc(=O)n3CCN(C)C)C2)no1 (stereo not drawn) | -3.71%
44 | CC(C)c1noc(-c2cccc(OCC(N)=O)c2)n1 | -5.07%
45 | COCC(NC(=O)c1ccc(O)nc1)c1ccc(C)o1 (stereo not drawn) | 0.572%
46 | CCOc1ccc(C#N)cc1NCc1cc(C)on1 | 27.9%

Row | SMILES | cytotoxicity at 70.5 h
47 | Cc1cccc(-c2nc(C)nn2CC(=O)NC(C)C)c1 | 18.6%
48 | CNC(=O)[C@H]1C[C@@H]2CN(C(=O)c3ccc(C)nc3)C[C@@H]2N1C | -15.1%
49 | Cc1cccc(S(=O)(=O)NCC(C)N2CCN(C)CC2)c1Cl (stereo not drawn) | -1.95%
50 | CC(C)c1nc(CN2CCc3onc(-c4cccc(F)c4)c3C2)no1 | -8.91%
51 | Cc1nc(CN2CCO[C@@H]3CN(C(=O)CC4CC4)C[C@@H]3C2)cs1 | -1.45%
52 | Cc1ccc(CNCCOc2ccc(S(C)(=O)=O)cc2)cc1 | 11%
53 | CN1CCN(S(=O)(=O)c2ccc(Sc3nccn3C)nc2)CC1 | 21.6%
54 | CCc1c(C(=O)N2CCN(c3ncccn3)CC2)cnn1C(C)(C)C | -2.98%
55 | Cc1ccc(C)c(S(=O)(=O)CCN2CCCC2Cn2cncn2)c1 (stereo not drawn) | -14.3%
56 | CCC(CC)C(=O)N(C)CC(=O)Nc1ccc(Br)cn1 | -1.35%
57 | CSc1ncccc1C(=O)N(CCO)Cc1ccccc1 | -0.362%
58 | COCCN1C[C@H]2CN(C(=O)C3CC3)CCN2C1=O | 3.48%
59 | CCNc1ncc(C(=O)N2CCC(c3ccccc3C(=O)O)C2)cn1 (stereo not drawn) | 2.76%
60 | CC(C)(CNC(=O)Nc1cccc(-c2nccs2)c1)C(N)=O | -0.236%
61 | c1ccc(-c2nnc(C3CCCN(CC4CCCCC4)C3)o2)nc1 (stereo not drawn) | -7.93%
62 | O=C(c1ccsc1)N1C[C@H]2CN(Cc3cccnc3)C(=O)[C@H]2C1 | 4.1%
63 | Cc1cc(C2CCC2)nc(N2CCC3(CCCN(C)C3=O)C2)n1 (stereo not drawn) | -10.6%
64 | CCS(=O)(=O)N1CCCC(c2nccn2Cc2cccnc2)C1 (stereo not drawn) | -7.4%
65 | O=C(c1cscn1)N1CCC(Cc2cnc3[nH]ccc3c2)C1 (stereo not drawn) | -1.17%
66 | O=C(COc1ccccc1)NCCNC(=O)c1scnc1Cl | -11.8%
67 | O=C(NC1CC1)N1CCn2c(Cn3cccn3)cnc2C1 | -5.68%
68 | O=C(c1ccccc1-c1ccccc1)N1C[C@@H]2CNC[C@]2(C(=O)O)C1 | 1.22%
69 | O=C(O)Cc1cn2cc(C(F)(F)F)ccc2n1 | -10.8%

Row | SMILES | cytotoxicity at 70.5 h
70 | Cc1cc(NC(=O)CNc2cccc(OC(F)F)c2C)n(C)n1 | -6.65%
71 | Cc1cc(C)c(C(=O)N2CCN(c3ncccc3C#N)CC2)c(=O)[nH]1 | 1.08%
72 | O=C(Nc1cc(F)ccc1OCC1CCCO1)c1ccccn1 (stereo not drawn) | -8.61%
73 | NC(=O)c1cnc(NC2CCN(c3ccccn3)CC2)c(Cl)c1 | -6.48%
74 | Cc1nc(C2(NCC(=O)NC(=O)NCc3cccs3)CCCCC2)no1 | -12.5%
75 | c1cnc(N2CCCC3(CN(CC4CCOCC4)CCO3)C2)cn1 (stereo not drawn) | -3.73%
76 | CS(=O)(=O)NC1CCN(C(=O)c2[nH]c3ccc(Cl)cc3c2Cl)CC1 | 31.7%
77 | COc1ccc(F)cc1S(=O)(=O)N1CCC(Oc2ccc(Cl)cn2)CC1 | -3.49%
78 | O=C(Nc1ccnn1C1CCCC1)c1ccc(NC2CC2)nc1 | 3.1%
79 | Nc1cc(C(=O)N2CCC3(CC2)Nc2ccccc2NC3=O)ccn1 | 19.6%
80 | Cc1cc(N2CCC(Cc3cccnc3)C2)ncn1 (stereo not drawn) | -3.49%
81 | Cc1nc(CNC(=O)NCc2ccc(OCC3CC3)nc2)cs1 | -5.23%
82 | COCc1nc(C(=O)N2CCCC(n3nc(C)nc3C)C2)cs1 (stereo not drawn) | 28.1%
83 | Cc1cnc(C(=O)NCc2cccnc2OC(C)C)cn1 | 21%
84 | CN1CCc2ncc(CNc3cc(N(C)C)ncn3)n2CC1 | -11.9%
85 | Cc1noc(C2CCCN(CC(=O)N3CCNC(=O)C3)C2)n1 (stereo not drawn) | -4.79%
86 | Cc1cnn(C2CCCN(C(=O)c3cn(-c4ccccc4)nc3C)C2)c1 (stereo not drawn) | -6.2%
87 | c1cc(CNCC2CNc3ccnn3C2)cc(OC2CCCC2)n1 (stereo not drawn) | -5.92%
88 | CC(Oc1ccc2c(c1)OCO2)C(=O)N1CCC(c2ncc[nH]2)CC1 (stereo not drawn) | -8.64%
89 | NC(=O)c1cc(CC2CCCN(c3cnccn3)C2)ncn1 (stereo not drawn) | -6.16%
90 | COc1ncccc1NC(=O)N1CCC(C(=O)NC(C)C)CC1 | -5.13%
91 | CC(C)CN1C[C@H]2CCN(c3ncccn3)CC[C@H]2S1(=O)=O | -12.5%
92 | CN1CCC(c2cccc(Cc3ccc(C(F)(F)F)cc3)n2)CC1 | -0.939%

Row | SMILES | cytotoxicity at 70.5 h
93 | Cn1ncc2c(=O)[nH]c(CN3CCCC3Cc3ccccc3)nc21 (stereo not drawn) | -13.7%
94 | CCCS(=O)(=O)N1C[C@H]2C[C@H](C(=O)N3CCOCC3)[C@@H](C1)O2 | -4.21%
95 | CC(C)n1ccnc1C1CCCN(c2cc(C(=O)NC3CC3)ccn2)C1 (stereo not drawn) | 12.2%
96 | COc1cccc(CNCCc2cc(F)cc3c2OCOC3)c1OC | 5.71%
97 | c1cncc(CNCc2cccs2)c1 | 26%
98 | Cc1[nH]nc(CCC(=O)N2CCOC(CCc3ccccc3)C2)c1C (stereo not drawn) | -0.521%
99 | COCCN1C(=O)CCC12CCN(C(=O)CNC(C)=O)CC2 | -8.47%
100 | Cc1ccc2c(n1)N(CC(C)C)CCN(C(=O)Cc1ccccn1)C2 | -4.9%
101 | CC(C)c1ncncc1C(=O)N1CCN(Cc2ccsc2)CC1 | -10.1%
102 | Cc1csc2cc(C(=O)NC3CC3)cnc12 | -1.57%
103 | Cc1cnccc1NCCn1ccnc1C1CCCCC1 | 0.0765%
104 | CCc1nc(C)ncc1C(=O)N1CC(C)CN(C)c2ccccc21 (stereo not drawn) | -7.55%
105 | CCC(CNC(=O)c1nc(=O)[nH][nH]1)Oc1cccc(C(F)(F)F)c1 (stereo not drawn) | -3.8%
106 | COc1cc(CNC(=O)c2cc(S(C)(=O)=O)ccc2C)ccn1 | -10.5%
107 | O=C(c1cnc2c(cnn2C2CCCC2)c1)N1CCCSCC1 | -6.43%
108 | Cc1ccoc1C(=O)NCCOc1ncc(Cl)cc1Cl | -4.36%
109 | CO[C@@H]1CCN(Cc2cccs2)[C@@H]2CN(Cc3ccncc3)C[C@@H]21 | -3.45%
110 | Cc1cc(C)n(CCCC(=O)N2CC[C@H]3NCCC[C@]3(CO)C2)n1 | -2.14%
111 | CC(C)OCCOCc1cccc(NC(=O)NCC(=O)N(C)C)c1 | -2.88%
112 | COc1cc(CCC(=O)NC2CCN(C)CC2)ccc1OCC(F)(F)F | -7.75%
113 | CCc1noc(CN(C)Cc2cc3ccc(Cl)cc3[nH]c2=O)n1 | -5.21%
